Assay results published in PMC7827406, “Structure–Activity Relationship (SAR) Study of Spautin-1 to Entail the Discovery of Novel NEK4 Inhibitors” (International Journal of Molecular Sciences, 2021).
Where two headings read alike, the source gives them in different places.

Experiments:
Assay in all cases: biochemical
Set-up in all cases: Eurofins KinaseProfiler full panel at Km ATP, residual kinase activity (%) relative to DMSO
[1] = target: CaMKK1(h) (Homo sapiens, UniProt Q8N5S9)
Method in brief: (§1)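 Two 10 µM single-concentration screens were run: a competition-binding screen, in which DNA-tagged kinase bound to immobilized ligands was quantified by qPCR, and a radiometric activity panel at Km ATP. Each is expressed as residual kinase activity (%).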

[2] = target: T1, MKK6(h) (Homo sapiens, UniProt P52564)
T1 construct: gene MAP2K6
T1 sequence (P52564 1-334): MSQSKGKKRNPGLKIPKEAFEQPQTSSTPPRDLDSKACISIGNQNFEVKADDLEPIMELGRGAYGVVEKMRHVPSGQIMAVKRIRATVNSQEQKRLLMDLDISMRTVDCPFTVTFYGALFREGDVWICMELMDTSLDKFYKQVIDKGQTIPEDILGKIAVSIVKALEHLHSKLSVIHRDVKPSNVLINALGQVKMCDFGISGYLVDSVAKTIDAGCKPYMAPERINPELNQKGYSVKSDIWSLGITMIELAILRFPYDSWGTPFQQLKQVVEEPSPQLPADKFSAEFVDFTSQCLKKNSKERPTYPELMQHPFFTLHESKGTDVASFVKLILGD
Method in brief: as §1

[3] = target: T2, NDR1(h) (Homo sapiens, UniProt Q15208)
T2 construct: gene STK38
T2 sequence (Q15208 whole entry): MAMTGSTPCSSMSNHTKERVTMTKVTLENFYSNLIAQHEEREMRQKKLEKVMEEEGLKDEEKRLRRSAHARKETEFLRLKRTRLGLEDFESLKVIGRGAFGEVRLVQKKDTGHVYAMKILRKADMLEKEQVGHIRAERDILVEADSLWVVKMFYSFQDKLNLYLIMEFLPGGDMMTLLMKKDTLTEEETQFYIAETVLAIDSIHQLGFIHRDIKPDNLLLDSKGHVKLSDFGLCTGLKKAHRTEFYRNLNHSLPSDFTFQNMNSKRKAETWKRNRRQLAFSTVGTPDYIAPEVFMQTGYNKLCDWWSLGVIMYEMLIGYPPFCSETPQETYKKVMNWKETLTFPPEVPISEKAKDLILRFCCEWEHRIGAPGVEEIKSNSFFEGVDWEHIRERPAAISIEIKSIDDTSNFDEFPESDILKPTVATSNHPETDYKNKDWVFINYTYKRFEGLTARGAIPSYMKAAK
Method in brief: as §1

[4] = target: T3, EphB2(h) (Homo sapiens, UniProt P29323)
T3 sequence (P29323 1-1055): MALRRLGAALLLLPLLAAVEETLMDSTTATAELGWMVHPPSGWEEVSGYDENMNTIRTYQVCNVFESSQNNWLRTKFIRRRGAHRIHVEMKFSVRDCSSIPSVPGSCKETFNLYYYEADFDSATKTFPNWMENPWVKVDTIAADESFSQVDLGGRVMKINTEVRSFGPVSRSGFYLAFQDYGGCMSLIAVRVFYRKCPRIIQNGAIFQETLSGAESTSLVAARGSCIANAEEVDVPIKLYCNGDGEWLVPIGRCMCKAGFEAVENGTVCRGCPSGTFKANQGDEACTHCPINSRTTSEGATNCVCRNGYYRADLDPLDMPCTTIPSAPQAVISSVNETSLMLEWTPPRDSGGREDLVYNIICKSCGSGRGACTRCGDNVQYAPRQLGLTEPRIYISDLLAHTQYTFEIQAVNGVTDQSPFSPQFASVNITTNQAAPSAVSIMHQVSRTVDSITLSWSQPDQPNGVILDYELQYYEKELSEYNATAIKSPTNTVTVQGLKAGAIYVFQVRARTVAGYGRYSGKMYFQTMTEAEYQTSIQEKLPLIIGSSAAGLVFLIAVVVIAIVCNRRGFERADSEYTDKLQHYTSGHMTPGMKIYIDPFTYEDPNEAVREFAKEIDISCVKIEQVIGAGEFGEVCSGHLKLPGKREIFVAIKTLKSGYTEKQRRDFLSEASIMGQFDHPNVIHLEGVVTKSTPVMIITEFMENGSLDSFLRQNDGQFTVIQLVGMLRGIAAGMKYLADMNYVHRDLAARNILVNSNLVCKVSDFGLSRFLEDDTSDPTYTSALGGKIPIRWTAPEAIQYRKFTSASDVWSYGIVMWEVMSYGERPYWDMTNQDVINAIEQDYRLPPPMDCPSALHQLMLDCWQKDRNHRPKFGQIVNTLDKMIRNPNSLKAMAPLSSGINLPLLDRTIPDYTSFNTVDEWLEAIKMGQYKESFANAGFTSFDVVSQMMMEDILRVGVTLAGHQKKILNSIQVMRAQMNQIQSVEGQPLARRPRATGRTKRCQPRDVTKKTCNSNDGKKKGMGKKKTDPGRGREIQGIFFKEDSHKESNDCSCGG
Method in brief: as §1

[5] = target: T4, NEK2(h) (Homo sapiens, UniProt P51955)
T4 sequence (P51955 1-445): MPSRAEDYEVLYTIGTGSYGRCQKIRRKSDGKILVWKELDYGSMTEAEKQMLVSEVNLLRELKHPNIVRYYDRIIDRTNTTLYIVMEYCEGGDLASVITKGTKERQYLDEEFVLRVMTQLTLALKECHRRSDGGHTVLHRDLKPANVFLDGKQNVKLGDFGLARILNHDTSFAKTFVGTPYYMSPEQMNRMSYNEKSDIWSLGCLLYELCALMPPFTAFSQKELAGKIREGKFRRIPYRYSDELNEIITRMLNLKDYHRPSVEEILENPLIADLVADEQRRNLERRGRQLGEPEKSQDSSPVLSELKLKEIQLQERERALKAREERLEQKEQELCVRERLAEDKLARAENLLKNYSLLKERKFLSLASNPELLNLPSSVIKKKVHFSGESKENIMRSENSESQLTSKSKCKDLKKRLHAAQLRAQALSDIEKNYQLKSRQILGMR
Method in brief: as §1

[6] = target: TTBK1(h) (Homo sapiens, UniProt Q5TCY1)
TTBK1(h), sequence (Q5TCY1 whole entry): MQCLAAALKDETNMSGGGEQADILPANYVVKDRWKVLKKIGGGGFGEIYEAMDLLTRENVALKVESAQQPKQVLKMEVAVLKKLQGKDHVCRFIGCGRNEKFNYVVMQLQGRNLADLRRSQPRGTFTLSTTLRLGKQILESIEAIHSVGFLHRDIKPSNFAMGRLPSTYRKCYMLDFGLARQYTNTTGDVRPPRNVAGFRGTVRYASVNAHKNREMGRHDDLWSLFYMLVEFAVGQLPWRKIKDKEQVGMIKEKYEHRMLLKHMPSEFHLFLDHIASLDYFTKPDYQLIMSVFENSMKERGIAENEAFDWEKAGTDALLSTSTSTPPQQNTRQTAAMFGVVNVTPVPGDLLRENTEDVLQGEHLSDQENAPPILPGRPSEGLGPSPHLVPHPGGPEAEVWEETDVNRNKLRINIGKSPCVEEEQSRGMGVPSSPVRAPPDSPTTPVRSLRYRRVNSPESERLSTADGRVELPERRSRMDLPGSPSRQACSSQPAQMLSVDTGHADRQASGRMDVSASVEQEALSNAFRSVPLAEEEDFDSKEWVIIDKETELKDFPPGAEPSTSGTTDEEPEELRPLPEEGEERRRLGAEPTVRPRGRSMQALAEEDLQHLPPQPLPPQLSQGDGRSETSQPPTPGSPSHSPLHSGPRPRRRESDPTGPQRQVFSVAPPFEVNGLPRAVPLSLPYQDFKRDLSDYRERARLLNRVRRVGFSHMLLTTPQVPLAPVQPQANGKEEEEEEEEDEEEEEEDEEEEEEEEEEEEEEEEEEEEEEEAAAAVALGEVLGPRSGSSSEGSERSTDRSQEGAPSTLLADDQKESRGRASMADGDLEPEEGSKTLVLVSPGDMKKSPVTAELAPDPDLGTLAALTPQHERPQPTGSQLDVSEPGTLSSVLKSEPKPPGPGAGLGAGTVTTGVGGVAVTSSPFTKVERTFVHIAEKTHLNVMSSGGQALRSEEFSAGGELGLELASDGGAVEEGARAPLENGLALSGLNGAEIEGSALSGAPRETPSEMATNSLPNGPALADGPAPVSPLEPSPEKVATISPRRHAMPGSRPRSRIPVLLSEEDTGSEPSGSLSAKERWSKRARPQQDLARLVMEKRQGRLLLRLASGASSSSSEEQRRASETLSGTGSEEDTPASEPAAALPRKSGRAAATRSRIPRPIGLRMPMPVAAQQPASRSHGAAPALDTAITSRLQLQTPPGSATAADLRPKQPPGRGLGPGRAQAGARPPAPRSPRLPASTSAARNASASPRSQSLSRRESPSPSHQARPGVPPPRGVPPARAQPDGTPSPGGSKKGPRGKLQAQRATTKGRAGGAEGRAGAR
Method in brief: as §1

[7] = read-out: Residual activity (%) 5ay
[8] = read-out: Residual activity (%) Spautin-1 5aa
[9] = read-out: Residual activity (%) 5at
[10] = read-out: Residual activity (%) 5as

CaMKK1(h), sequence (Q8N5S9 whole entry): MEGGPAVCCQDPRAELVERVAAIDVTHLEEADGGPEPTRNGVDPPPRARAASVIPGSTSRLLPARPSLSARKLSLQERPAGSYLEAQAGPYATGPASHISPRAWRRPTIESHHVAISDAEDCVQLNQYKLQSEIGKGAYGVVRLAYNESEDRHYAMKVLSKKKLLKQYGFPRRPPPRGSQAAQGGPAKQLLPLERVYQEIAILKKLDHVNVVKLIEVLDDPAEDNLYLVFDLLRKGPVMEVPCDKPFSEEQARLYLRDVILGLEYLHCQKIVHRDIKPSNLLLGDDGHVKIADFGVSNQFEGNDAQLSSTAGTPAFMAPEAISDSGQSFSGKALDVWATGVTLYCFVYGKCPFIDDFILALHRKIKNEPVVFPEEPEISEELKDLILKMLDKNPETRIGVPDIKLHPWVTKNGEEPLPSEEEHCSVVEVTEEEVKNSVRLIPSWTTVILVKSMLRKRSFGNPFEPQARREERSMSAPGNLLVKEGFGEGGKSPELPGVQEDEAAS

COc1ccc2ncnc(Nc3cccc(F)c3)c2c1 [5ay, N-(3-Fluorophenyl)-6-Methoxy-4-Quinazolinamine]
remaining activity at 10 µM [1, 7]: 90% | remaining activity at 10 µM [2, 7]: 74% | remaining activity at 10 µM [3, 7]: 98% | remaining activity at 10 µM [4, 7]: 97% | remaining activity at 10 µM [5, 7]: 92% | remaining activity at 10 µM [6, 7]: 112%

Fc1ccc(CNc2ncnc3ccc(F)cc23)cc1 [5aa, 6-Fluoro-N-(4-fluorobenzyl)-4-Quinazolinamine]
remaining activity at 10 µM [1, 8]: 96% | remaining activity at 10 µM [2, 8]: 78% | remaining activity at 10 µM [3, 8]: 108% | remaining activity at 10 µM [4, 8]: 96% | remaining activity at 10 µM [5, 8]: 91% | remaining activity at 10 µM [6, 8]: 119%

Fc1ccc2ncnc(NCCc3ccc(Cl)cc3)c2c1 [5at, N-[2-(4-Chlorophenyl)Ethyl]-6-Fluoro-4-Quinazolinamine]
remaining activity at 10 µM [1, 9]: 91% | remaining activity at 10 µM [2, 9]: 95% | remaining activity at 10 µM [3, 9]: 89% | remaining activity at 10 µM [4, 9]: 93% | remaining activity at 10 µM [5, 9]: 95% | remaining activity at 10 µM [6, 9]: 114%

Fc1ccc(CCNc2ncnc3ccc(F)cc23)cc1 [5as, 6-Fluoro-N-[2-(4-Fluorophenyl)Ethyl]-4-Quinazolinamine]
remaining activity at 10 µM [1, 10]: 99% | remaining activity at 10 µM [2, 10]: 84% | remaining activity at 10 µM [3, 10]: 96% | remaining activity at 10 µM [4, 10]: 82% | remaining activity at 10 µM [5, 10]: 88% | remaining activity at 10 µM [6, 10]: 104%
